# Patent EP1016405A2, “Arylating medicaments” (Radopath Pharmaceuticals International Limited, priority 1993, dated 1994)
# “And” between values parts separate entries of the source, which are not always exact repeats. Equal values may be shown once. Read-outs that look alike come from different tables or passages of the source.
# Tests used:
# [1] = system: B16F1-murine melanoma; conditions: for % Tumour Weight Inhibition: 12 days after sc transplant, corn oil
# [2] = system: HIV-1IIIB; experiment: Acute infection assay against HIV-1IIIB; assay type: cell-based, human immunodeficiency virus; conditions: for IC50: read-out: IC50 (Antiviral)
# [3] = in vitro; conditions: CC50 (Toxicity)
# [4] = in vivo; conditions: mouse, ip
# [5] = system: uninfected cells
# [6] = system: HIV-1RF; experiment: Acute Infection Assay, HIV core antigen ELISA in C8166 cells; assay type: cell-based, human immunodeficiency virus
# [7] = system: P388 (murine leukaemia); experiment: Anti-tumour activity against P388 ascites tumour, survival T/C%; assay type: in vivo, mice; conditions: Table 2, mean, day 1 to 5
# Procedure: (§1) The purpose of these studies was to evaluate the anti-tumour properties of a group of compounds with structural similarities that may act as arylating agents. Their in vivo anti-tumour responses were assessed against two ascitic tumours, the MAC15A murine colon adenocarcinoma and the P388 murine leukaemia and various solid tumour models.
# (§2) The MAC15A ascites tumour cells were transplanted into male NMR1 mice by ip inoculation at a cell density of 1 X 10^5 cells in 200µl buffer (Table 1). The P388 were transplanted ip into male BDF1 mice at cell density of 1 X 10^6 cells in 200µl buffer (Table 2). The solid tumour models included the MAC13 and MAC16 murine colon adenocarcinomas, the B16 F1 murine melanoma and the M5076 reticulum cell sarcoma.
# (§3) Treatment commenced 3 days after ip transplant or, in the case of solid tumours such as MAC13 and MAC16, treatment commenced when average tumour volumes reached 40mm^3.
# The animals were located in both cases into groups of 5 to 8 animals.
# (§4) The animals were sacrificed after 12 days or when tumours ulcerated, tumour volume exceeded 1000mm^3 or loss of body weight exceeded 50%.
# Except where otherwise stated, the compounds used were dissolved in DMSO and diluted in sterile distilled water, at appropriate concentrations before administration in a solvent volume of 200 µl. […]
# T/C% is determined as follows:- […]
# [8] = system: MAC15A (murine adenocarcinoma colon); experiment: Anti-tumour activity against MAC15A ascites tumour, survival T/C%; assay type: in vivo, mice; conditions: ip; for T/C%: mouse, in vivo; for response vs control in vivo at 100 mg/kg: Mus musculus, MAC15A, read-out: T/C%
# [9] = system: M5076 reticulum cell sarcoma; experiment: Anti-tumour activity against M5076 reticulum cell sarcoma; assay type: in vivo, murine; conditions: statement in words
# Procedure: as §1, §2, §3, §4
# (§5) Except where otherwise stated, the compounds used were dissolved in DMSO and diluted in sterile distilled water, at appropriate concentrations before administration in a solvent volume of 200 µl. Anti-tumour responses were obtained by comparing the median survival times or tumour growth inhibition against solvent controls.
# [10] = system: MAC13 murine colon adenocarcinoma; experiment: Anti-tumour activity against MAC13, tumour weight inhibition; assay type: in vivo; conditions: 12 days after im transplant, corn oil
# Procedure: as §1, §2, §3, §4, §5
# [11] = as above; assay type: in vivo, murine; conditions: mouse, in vivo; Table 6; ip, per day; corn oil; read-out: maximum tolerated dose
# Procedure: as §1, §2, §3, §4, §5
# [12] = system: B16 murine melanoma; experiment: Anti-tumour activity against B16 melanoma in C57/black mice, tumour weight inhibition; assay type: in vivo, female C57/black mice; conditions: statement in words, refers to Table 8
# [13] = Anti-tumour activity in vitro; conditions: statement in words
# [14] = system: MAC16, murine colon adenocarcinoma; experiment: Anti-tumour activity against MAC16, tumour weight inhibition; assay type: in vivo; conditions: for % Tumour Weight Inhibition: day 11 after beginning of treatment, sc transplant, corn oil
# Procedure: as §1, §2, §3, §4, §5
# [15] = as above; assay type: in vivo, murine; conditions: mouse, in vivo; Table 7; ip, per day; corn oil; read-out: maximum tolerated dose
# Procedure: as §1, §2, §3, §4, §5
# [16] = Human immunodeficiency virus 1, C8166, read-out: IC50 (Antiviral)
# [17] = Human immunodeficiency virus 1, Table 11.3, Against HIV-IIIB / HIV-1IIIB, single assays, unit inferred
# [18] = Human immunodeficiency virus 1, IIIB
smiles,measurement,setting,value
"NC(=O)c1cc([N+](=O)[O-])c(Cl)c([N+](=O)[O-])c1 [Compound C5, 4-chloro-3,5-dinitrobenzamide]",% Tumour Weight Inhibition,"[1]; 1.25 mg/kg ip, days 1,3,5",27%
same,% Tumour Weight Inhibition,"[1]; 2.5 mg/kg ip, days 1,3,5",18%
same,% Tumour Weight Inhibition,"[1]; 5 mg/kg ip, days 1,3,5",18%
same,SI (Selectivity Index),[2],10
same,CC50,[3],50 µM
same,MTD at 12 days,[4],5 mg/kg
"O=[N+]([O-])c1cccc(Cl)c1Cl [Compound E4, 2,3-dichloronitrobenzene]",CC50,[5],> 200 µM
same,SI (Selectivity Index),[6],1.5
same,IC50,[6]; [16],80 µM
"O=[N+]([O-])c1ccc(Cl)cc1Cl [Compound E5, 2,4-dichloronitrobenzene]",CC50,[5],> 200 µM
same,SI (Selectivity Index),[6],1
same,IC50,[6]; [16],180 µM
"O=C(O)c1ccc([N+](=O)[O-])cc1Cl [Compound C-10, 2-chloro-4-nitrobenzoic acid]",IC50,[2]; [17],> 200 µM
same,CC50,[3],> 200 µM
"O=[N+]([O-])c1cc(S(=O)(=O)O)cc([N+](=O)[O-])c1Cl [Compound S1, 4-chloro-3,5-dinitrobenzenesulfonic acid]",CD50,[5],80 µM
same,TC%,[7]; 50 mg kg^-1 per day IP,259%
same,TC%,[7]; 100mg kg^-1 per day IP,203%
same,SI (Selectivity Index),[6],5 and 3
same,TI,[6],28.6
same,IC50,[6]; read-out: IC50,3 µM
same,IC50,[6]; read-out: IC50 (Antiviral),20 µM and 19 µM
same,CC50,[3],100 µM
same,T/C%,[8],414%
"COC(=O)c1cc([N+](=O)[O-])cc([N+](=O)[O-])c1Cl [Compound C8, 2-chloro-3,5-dinitrobenzoic acid methyl ester]",IC50,[2]; [18],10 µM
same,CC50,[3],60 µM
"O=[N+]([O-])c1cc(Cl)cc(Cl)c1 [Compound E8, 3,5-dichloronitrobenzene]",CC50,[5],> 200 µM
same,SI (Selectivity Index),[6],1.5
same,IC50,[6]; [16],120 µM
"Nc1c([N+](=O)[O-])cc(S(=O)(=O)O)cc1[N+](=O)[O-] [Compound S3, 4-amino-3,5-dinitrobenzenesulfonic acid]",CD50,[5],100µm
same,TI,[6],5
same,IC50,[6]; read-out: IC50,20 µM
same,T/C%,[8],286%
"O=C(O)c1ccc(Cl)c([N+](=O)[O-])c1 [Compound C9, 4-chloro-3-nitrobenzoic acid]",IC50,[2]; [17],> 200 µM
same,CC50,[3],> 200 µM
"O=C(O)c1cc([N+](=O)[O-])c(Cl)c([N+](=O)[O-])c1 [Compound C4, 4-chloro-3,5-dinitrobenzoic acid]",% Tumour Weight Inhibition,"[1]; 50 mg/kg ip, days 1,5",10%
same,% Tumour Weight Inhibition,"[1]; 75 mg/kg ip, days 1,5",41%
same,% Tumour Weight Inhibition,"[1]; 100 mg/kg ip, days 1,5",39%
same,CD50,[5],70µm
same,SI (Selectivity Index),[2],2.5 and 2.3
same,TI,[6],2.33
same,CC50,[3],100 µM
"NC(=O)c1cc([N+](=O)[O-])c(Cl)c([N+](=O)[O-])c1Cl [Compound C2, 2,4-dichloro-3,5-dinitrobenzamide]",SI (Selectivity Index),[2],35
same,IC50,[2]; [18],2 µM
same,CC50,[3],70 µM
same,antitumour activity,[9],without antitumour activity
same,% Tumour Weight Inhibition,"[10]; 1.25 mg/kg ip, days 1,2,3,4,5,6,7,8,9",17%
same,% Tumour Weight Inhibition,"[10]; 2.5 mg/kg ip, days 1,2,3,4,5,6,7,8,9",51%
same,MTD at 12 days,[11],2.5 mg/kg
same,MTD,[4],2.5 mg/kg
"O=[N+]([O-])c1cc([N+](=O)[O-])c(Cl)c(S(=O)(=O)O)c1 [Compound S2, 2-chloro-3,5-dinitrobenzenesulfonic acid]",CD50,[5],>200µm
same,TI,[6],>8
same,IC50,[6]; read-out: IC50,25 µM
same,T/C%,[8],137%
"COC(=O)c1cc([N+](=O)[O-])c(Cl)c([N+](=O)[O-])c1 [Compound C6, 4-chloro-3,5-dinitrobenzoic acid methyl ester]",IC50,[2]; [18],5 µM
same,CC50,[3],60 µM
same,MTD,[4],2.5 mg/kg
"O=S(=O)(O)c1cc(Cl)ccc1Cl [Compound S7, 2,5-dichlorobenzenesulfonic acid]",IC50,"[6]; Human immunodeficiency virus 1, C8166, Table 11.4, Against HIV-1RF, single assays, unit inferred, read-out: IC50 (Antiviral)",> 200 µM
same,CC50,[3],> 200 µM
same,response vs control in vivo at 100 mg/kg,[8],212%
"COC(=O)c1cc([N+](=O)[O-])c(Cl)c([N+](=O)[O-])c1Cl [Compound C3, 2,4-dichloro-3,5-dinitrobenzoic acid methyl ester]",IC50,[2]; [18],0.3 µM
same,CC50,[3],7 µM
same,antitumour activity,[9],without antitumour activity
O=C(O)c1cc([N+](=O)[O-])ccc1Cl [2-chloro-5-nitrobenzoic acid],anti-tumour activity in vivo,[12],shows consideration anti-tumour activity in vivo
same,anti-tumour activity in vitro,[13],could not be supported in vitro
"O=C(O)c1cc([N+](=O)[O-])cc([N+](=O)[O-])c1Cl [Compound C7, 2-chloro-3,5-dinitrobenzoic acid]",CC50,[5],> 200 µM
same,SI (Selectivity Index),[2],6 and >10
same,IC50,[2],23 µM
same,CC50,[3],150 µM
"O=C(O)c1ccc(Cl)c(Cl)c1 [Compound C-11, 3,4-dichlorobenzoic acid]",IC50,[2]; [17],> 200 µM
same,CC50,[3],> 200 µM
"O=[N+]([O-])c1ccc(Cl)c(Cl)c1 [Compound E7, 3,4-dichloronitrobenzene]",CC50,[5],> 200 µM
same,IC50,[6]; [16],> 200 µM
"O=C(O)c1cc([N+](=O)[O-])c(Cl)c([N+](=O)[O-])c1Cl [Compound C1, 2,4-dichloro-3,5-dinitrobenzoic acid]",inhibition of tumour growth,"[1]; mouse, in vivo",effectively inhibited growth
same,% Tumour Weight Inhibition,"[14]; 50 mg/kg ip, days 1,2,4,5,8",91%
same,% Tumour Weight Inhibition,"[14]; 75 mg/kg ip, days 1,2,5,8",88%
same,inhibition of tumour growth,"[14]; statement in words, MAC16 murine colon adenocarcinoma",effectively inhibited growth
same,MTD at 12 days,[15],75 mg/kg
same,CC50,[5],60 µM
same,CC50,[3],56 µM
same,% Tumour Weight Inhibition,"[10]; 50 mg/kg ip, days 1,2,3,4,5,6,7,8,9",39%
same,% Tumour Weight Inhibition,"[10]; 75 mg/kg ip, days 1,4,5",45%
same,MTD at 12 days,[11],75 mg/kg
same,response vs control in vivo at 100 mg/kg,[8],243%
same,MTD,[4],75 mg/kg
